Our source for the EC50 values is US20230041738A1, “1H-PYRAZOLO[4,3-d]PYRIMIDINE COMPOUNDS AS TOLL-LIKE RECEPTOR 7 (TLR7) AGONISTS” (BRISTOL-MYERS SQUIBB COMPANY, priority 2020, published 2023).

One assay concerns CD69. Briefly: Induction of CD69 in human whole blood (hWB). In kind it is cell-based. To be noted: 17 hrs at 37 C, CD69 surface staining, 100% set to 1 uM resiquimod, average where performed multiple times. Here is the method:
The induction of Type I interferon (IFN) MX-1 genes and the B-cell activation marker CD69 are downstream events that occur upon activation of the TLR7 pathway. The following is a human whole blood assay that measures their induction in response to a TLR7 agonist.
Heparinized human whole blood was harvested from human subjects and treated with test TLR7 agonist compounds at 1 mM. The blood was diluted with RPMI 1640 media and Echo was used to predot 10 nL per well giving a final concentration of 1 uM (10 nL in 10 uL of blood). After mixing on a shaker for 30 sec, the plates were covered and placed in a 37° C. chamber for o/n=17 hrs. Fixing/lysis buffer was prepared (5×→1× in H2O, warm at 37° C.; Cat #BD 558049) and kept the perm buffer (on ice) for later use.
For surface markers staining (CD69): prepared surface Abs: 0.045 ul hCD14-FITC (ThermoFisher Cat #MHCD1401)+0.6 ul hCD19-ef450 (ThermoFisher Cat #48-0198-42)+1.5 ul hCD69-PE (cat #BD555531)+0.855 ul FACS buffer. Added 3 ul/well, spin1000 rpm for 1 min and mixed on shaker for 30 sec, put on ice for 30 mins. Stop stimulation after 30 min with 70 uL of prewarmed 1× fix/lysis buffer and use Feliex mate to resuspend (15 times, change tips for each plate) and incubate at 37C for 10 min.
Centrifuge at 2000 rpm for 5 min aspirate with HCS plate washer, mix on shaker for 30 sec and then wash with 70 uL in dPBS and pelleted 2× s (2000 rpm for 5 min) and 50 ul wash in FACS buffer pelleted 1×s(2000 rpm for 5 min). Mix on shaker for 30 sec. For Intracellular markers staining (MX-1): Add 50 ul of BD Perm buffer III and mix on shaker for 30 sec. Incubate on ice for 30 min (in the dark). Wash with 50 uL of FACS buffer 2× (spin @2300 rpm×5 min after perm) followed by mixing on shaker for 30 sec. Resuspended in 20 ul of FACS buffer containing MX1 antibody ( )(4812)-Alexa 647: Novus Biologicals #NBP2-43704AF647) 20 ul FACS bf+0.8 ul hlgG+0.04 ul MX-1. Spin 1000 rpm for 1 min, mix on shaker for 30se and the samples were incubated at RT in the dark for 45 min followed by washing 2× FACS buffer (spin @2300 rpm×5 min after perm). Resuspend 20 ul (35 uL total per well) of FACS buffer and cover with foil and place in 4° C. to read the following day. Plates were read on iQuePlus. The results were loaded into toolset and IC50 curves are generated in curve master. The y-axis 100% is set to 1 uM of resiquimod.

A further assay has as its target T1, human TLR7 (Homo sapiens, UniProt Q9NYK1).
T1 construct: host or cells: HEK-Blue TLR7 cells (engineered human embryonic kidney cells)
T1 sequence (Q9NYK1 27-1049): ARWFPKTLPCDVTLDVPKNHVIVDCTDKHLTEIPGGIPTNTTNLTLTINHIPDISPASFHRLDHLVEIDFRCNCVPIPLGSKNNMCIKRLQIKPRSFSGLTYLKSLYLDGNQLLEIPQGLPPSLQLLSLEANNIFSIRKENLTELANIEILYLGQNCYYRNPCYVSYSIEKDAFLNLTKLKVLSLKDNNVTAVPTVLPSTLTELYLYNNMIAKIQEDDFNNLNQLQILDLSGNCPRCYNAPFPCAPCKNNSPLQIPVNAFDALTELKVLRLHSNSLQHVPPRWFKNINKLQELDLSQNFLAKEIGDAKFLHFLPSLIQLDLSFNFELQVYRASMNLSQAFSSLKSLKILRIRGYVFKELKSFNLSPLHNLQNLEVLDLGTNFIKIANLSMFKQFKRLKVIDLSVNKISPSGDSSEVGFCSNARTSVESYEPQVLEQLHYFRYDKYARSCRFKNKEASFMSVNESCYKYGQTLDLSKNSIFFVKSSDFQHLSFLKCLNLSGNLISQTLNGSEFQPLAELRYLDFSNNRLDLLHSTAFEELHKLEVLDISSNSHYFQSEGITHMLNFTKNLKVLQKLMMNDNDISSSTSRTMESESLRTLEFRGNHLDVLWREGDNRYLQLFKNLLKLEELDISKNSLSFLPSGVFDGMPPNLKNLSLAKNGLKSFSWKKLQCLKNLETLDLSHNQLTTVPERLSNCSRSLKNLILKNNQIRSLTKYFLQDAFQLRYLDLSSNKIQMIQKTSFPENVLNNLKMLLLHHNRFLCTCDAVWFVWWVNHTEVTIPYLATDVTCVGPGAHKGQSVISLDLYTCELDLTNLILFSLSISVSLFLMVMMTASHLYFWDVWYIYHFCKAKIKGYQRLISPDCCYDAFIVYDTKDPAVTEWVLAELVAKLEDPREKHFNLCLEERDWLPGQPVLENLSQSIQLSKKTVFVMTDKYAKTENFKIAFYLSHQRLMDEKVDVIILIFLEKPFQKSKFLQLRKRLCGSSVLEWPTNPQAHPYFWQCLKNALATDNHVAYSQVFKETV
Nature of the assay: Human TLR7 agonist activity assay (hTLR7 reporter, HEK-Blue TLR7 cells, SEAP). In kind it is cell-based. To be noted: HEK-Blue TLR7 cells with SEAP reporter, 18 h treatment; average where assay performed multiple times. Here is the method:
This procedure describes a method for assaying human TLR7 (hTLR7) agonist activity of the compounds disclosed in this specification.
HEK-Blue™ TLR7 cells were added to each well of a 384-well tissue-culture plate (15,000 cells per well) and incubated 16-18 h at 37° C., 5% CO2. Compounds (100 nl) were dispensed into wells containing the HEK-Blue™ TLR cells and the treated cells were incubated at 37° C., 5% CO2. After 18 h treatment ten microliters of freshly-prepared Quanti-Blue™ reagent (Invivogen) was added to each well, incubated for 30 min (37° C., 5% CO2) and SEAP levels measured using an Envision plate reader (OD=620 nm). The half maximal effective concentration values (EC50; compound concentration which induced a response halfway between the assay baseline and maximum) were calculated.

A word on the EC50: it is the concentration giving half of the maximal effect. The low end stands for an effect from little substance, the high end for a need for much substance. As to `CCC[C@@H](CCO)Nc1nc(N)nc2cnn(Cc3ccc(CN4C[C@H]5C[C@@H]4CN5C)cc3OC)c12` [Compound 121, (3S)-3-({5-amino-1-[(2-methoxy-4-{[(1R,4R)-5-methyl-2,5-diaza-bicyclo[2.2.1]heptan-2-yl]methyl}-phenyl)methyl]-1H-pyrazolo[4,3-d]pyrimidin-7-yl}amino)hexan-1-ol], the values for the EC50 with CD69 and on human TLR7 were 1.3 nM and 22.1 nM, respectively.
With `CCC[C@@H](CCO)Nc1nc(N)nc2cnn(Cc3ccc(CN4C[C@H]5CN(C)C[C@H]5C4)cc3OC)c12` [Compound 122, (3S)-3-({1-[(4-{[(3aR,6aS)-5-methyl-octahydropyrrolo[3,4-c]pyrrol-2-yl]methyl}-2-methoxyphenyl)methyl]-5-amino-1H-pyrazolo[4,3-d]pyrimidin-7-yl}amino)hexan-1-ol], the EC50 with CD69 was found to be 0.7 nM; at human TLR7 it was 7.2 nM.
For `CCCCNc1nc(N)nc2cnn(Cc3ccc(C(=O)N4C[C@H]5CNC[C@H]5C4)cc3OC(F)F)c12` [Compound 123, 1-({4-[(3aR,6aS)-octahydro-pyrrolo[3,4-c]pyrrole-2-carbonyl]-2-(difluoromethoxy)phenyl}methyl)-N7-butyl-1H-pyrazolo[4,3-d]pyrimidine-5,7-diamine], in that order: 482 nM and 2240 nM.
For `COc1cc(CN2C[C@@H]3C[C@H]2CO3)ccc1Cn1ncc2nc(N)nc(NCc3cc(C)on3)c21` [Compound 127, 1-[(2-methoxy-4-{[(1S,4S)-2-oxa-5-azabicyclo[2.2.1]heptan-5-yl]methyl}phenyl)methyl]-N7-[(5-methyl-1,2-oxazol-3-yl)methyl]-1H-pyrazolo[4,3-d]pyrimidine-5,7-diamine], in that order: 16.7 nM and 682 nM.
Regarding `COc1cc(CN2C[C@H]3C[C@@H]2CN3C)ccc1Cn1nc(C)c2nc(N)nc(NCc3cc(C)on3)c21` [Compound 128, 1-[(2-methoxy-4-{[(1R,4R)-5-methyl-2,5-diazabicyclo[2.2.1]-heptan-2-yl]methyl}phenyl)-methyl]-3-methyl-N7-[(5-methyl-1,2-oxazol-3-yl)methyl]-1H-pyra-zolo[4,3-d]pyrimidine-5,7-diamine], the concentration giving a half-maximal response (EC50) in the assay on CD69 worked out at 28 nM; at human TLR7, 74.4 nM.
As for `COc1cc(CN2C[C@@H]3C[C@H]2CN3)ccc1Cn1ncc2nc(N)nc(NCc3noc(C)n3)c21` [Compound 129, 1-[(4-{[(1S,4S)-2,5-diaza-bicyclo[2.2.1]heptan-2-yl]methyl}-2-methoxyphenyl)methyl]-N7-[(5-methyl-1,2,4-oxadiazol-3-yl)methyl]-1H-pyrazolo[4,3-d]pyri-midine-5,7-diamine], the EC50 with CD69 is 804 nM; at human TLR7, 323 nM.
For `COc1cc(CN2C[C@@H]3C[C@H]2CN3C)ccc1Cn1ncc2nc(N)nc(NCc3noc(C)n3)c21` [Compound 130, 1-[(2-methoxy-4-{[(1S,4S)-5-methyl-2,5-diazabicyclo[2.2.1]-heptan-2-yl]methyl}phenyl)methyl]-N7-[(5-methyl-1,2,4-oxa-diazol-3-yl)methyl]-1H-pyrazolo[4,3-d]pyrimidine-5,7-diamine], in that order: 74.3 nM and 135 nM.
In the case of `CCC[C@@H](CCO)Nc1nc(N)nc2cnn(Cc3cnc(CN4C[C@@H]5C[C@H]4CN5C)cc3OC)c12` [Compound 131, (3S)-3-({5-amino-1-[(4-methoxy-6-{[(1S,4S)-5-methyl-2,5-diaza-bicyclo[2.2.1]heptan-2-yl]methyl}pyridin-3-yl)methyl]-1H-pyrazolo[4,3-d]pyrimidin-7-yl}amino)hexan-1-ol], the values for the EC50 with CD69 and at human TLR7 were 11.7 nM and 333 nM, respectively.
`CCC[C@@H](CCO)Nc1nc(N)nc2cnn(Cc3cnc(CN4C[C@H]5CN(C)C[C@H]5C4)cc3OC)c12` [Compound 132, (3S)-3-({1-[(6-{[(3aR,6aS)-5-methyl-octahydropyrrolo[3,4-c]pyrrol-2-yl]methyl}-4-methoxypyridin-3-yl)methyl]-5-amino-1H-pyrazolo [4,3-d]pyrimidin-7-yl}amino)hexan-1-ol]: the EC50 worked out at 2.2 nM in the assay with CD69 and 65.9 nM on human TLR7.
For `CCC[C@@H](CCO)Nc1nc(N)nc2cnn(Cc3cnc(CN4C[C@H]5CNC[C@H]5C4)cc3OC)c12` [Compound 133, (3S)-3-({1-[(6-{[(3aR,6aS)-octa-hydropyrrolo[3,4-c]pyrrol-2-yl]methyl}-4-methoxypyridin-3-yl)methyl]-5-amino-1H-pyrazolo[4,3-d]pyrimidin-7-yl}amino)hexan-1-ol], the EC50 in the assay on CD69 worked out at 2.8 nM; at human TLR7, 89.9 nM.
For `CCC[C@@H](CCO)Nc1nc(N)nc2cnn(Cc3cnc(CN4C[C@@H]5C[C@H]4CN5)cc3OC)c12` [Compound 134, (3S)-3-({5-amino-1-[(6-{[(1S,4S)-2,5-diazabicyclo[2.2.1]heptan-2-yl]methyl}-4-methoxypyridin-3-yl)methyl]-1H-pyrazolo[4,3-d]pyrimidin-7-yl}amino)hexan-1-ol], in that order: 22.4 nM and 354 nM.
With `CCC[C@@H](CCO)Nc1nc(N)nc2cnn(Cc3ncc(CN4C[C@@H]5C[C@H]4CN5CCO)cc3OC)c12` [Compound 135, (3S)-3-({5-amino-1-[(5-{[(1S,4S)-5-(2-hydroxyethyl)-2,5-diaza-bicyclo[2.2.1]heptan-2-yl]methyl}-3-methoxypyridin-2-yl)methyl]-1H-pyrazolo[4,3-d]pyrimidin-7-yl}amino)hexan-1-ol], the values for the EC50 with CD69 and at human TLR7 were 12.2 nM and 297 nM, respectively.
For `CCCCNc1nc(N)nc2cnn(Cc3ccc(CN4C[C@H]5CNC[C@H]5C4)cc3OC)c12` [Compound 136, 1-[(4-{[(3aR,6aS)-octahydro-pyrrolo[3,4-c]pyrrol-2-yl]methyl}-2-methoxyphenyl)methyl]-N7-butyl-1H-pyrazolo[4,3-d]pyrimidine-5,7-diamine], in that order: 1.3 nM and 62.2 nM.
